Results taken from publication PMC5442318, “Hundreds of dual-stage antimalarial molecules discovered by a functional gametocyte screen” (Nature Communications, 2017).
Like-named read-outs stand apart in the source and are kept apart here.

Legend:
[1] = test system: P. falciparum stages IV–V gametocytes; assay: Gametocytocidal ATP-depletion assay (gametocyte ATP bioluminescence); assay type: cell-based, Plasmodium falciparum
In short: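 Purified stage IV–V gametocytes (12,500/well) incubated with compound for 48 h at 37 °C under 3% O2/5% CO2. ATP measured by BacTiter-Glo luminescence as a viability surrogate; hits tested at 2 μM single concentration.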

[2] = test system: P. falciparum asexual blood stages; conditions: read-out: Pf Asexual blood stages XC50, cited from earlier work
[3] = test system: P. falciparum stage V female gametocytes; assay: P. falciparum female gametocyte activation assay (Pf FGAA), 24 h or 48 h preincubation, Pfs25 expression readout; assay type: cell-based, Plasmodium falciparum NF54; conditions: mean, read-out: Gametocytes mean Pf FGAA IC50
In short: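 Purified stage V gametocytes from P. falciparum NF54 gametocyte cultures were exposed to compounds for 24 h or 48 h at 37 °C under 3% O2/5% CO2, then activated by temperature drop plus xanthurenic acid. Activated females were stained with Cy3-anti-Pfs25 (0.5 μg ml^−1) for 24 h at 26 °C and counted by high-content imaging; pIC50 by nonlinear regression.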

HepG2 cells = assay: HepG2 cytotoxicity assay; assay type: cell-based; conditions: mean
In short: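 Post-incubation CellTiter-Glo luminescence; 30 min RT equilibration, 10 min RT stabilization before reading.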

[4] = TCAMS asexual blood stage data, ref 1 (Gamo, F. J. et al., Nature 465, 305-310, 2010)
[5] = P. falciparum female gametocytes
[6] = TCAMS data, ref 1 (Gamo et al., 2010)

Compound	Gametocytes mean ATP inhibition at 2µM [1]	IC50 [2, 4]	IC50 [3, 5]	HepG2 cells mean TOX50 (HepG2 cells; HepG2 cells)	Gametocytes mean ATP inhibition at 2µM (%) [1]	IC50 [2, 6]	IC50 [3]	HepG2 cells mean TOX50 (HepG2 cells)
CC(C)c1ccc(CN2CCC(CNC(=O)c3cc(-c4cccc(Cl)c4)cs3)C2)cc1.O=C(O)C(F)(F)F (stereo not drawn) [TCMDC-134438]	-9.36%	750 nM	600 nM	6.53 µM				
CC(C)c1ccc(CN2CCC(CNC(=O)c3cc(-c4ccc(N(C)C)cc4)cs3)C2)cc1.O=C(O)C(F)(F)F (stereo not drawn) [TCMDC-134440]	-6.60%	1250 nM	710 nM	5.85 µM				
CC(C)(C)c1ccc(CN2CCC(CNC(=O)c3cc(-c4ccccc4C(F)(F)F)cs3)C2)cc1.O=C(O)C(F)(F)F (stereo not drawn) [TCMDC-134441]	-17.21%	1240 nM	690 nM	9.77 µM				
CC(C)(C)c1ccc(CN2CCC(CNC(=O)c3cc(-c4cccc(C(F)(F)F)c4)cs3)C2)cc1.O=C(O)C(F)(F)F (stereo not drawn) [TCMDC-134442]	-16.04%	1030 nM	950 nM	6.39 µM				
CC(C)(C)c1ccc(CN2CCC(CNC(=O)c3cc(-c4ccccc4F)cs3)C2)cc1.O=C(O)C(F)(F)F (stereo not drawn) [TCMDC-134443]	-4.04%	560 nM	830 nM	9.30 µM				
CC(C)(C)c1ccc(CN2CCC(CNC(=O)c3cc(-c4cccc(F)c4)cs3)C2)cc1.O=C(O)C(F)(F)F (stereo not drawn) [TCMDC-134444]	0.99%	900 nM	1320 nM	6.61 µM				
CC(C)(C)c1ccc(CN2CCC(CNC(=O)c3cc(-c4ccccc4Cl)cs3)C2)cc1.O=C(O)C(F)(F)F (stereo not drawn) [TCMDC-134445]	-16.96%	860 nM	1010 nM	6.17 µM				
CC(C)(C)c1ccc(CN2CCC(CNC(=O)c3cc(-c4cccc(Cl)c4)cs3)C2)cc1.O=C(O)C(F)(F)F (stereo not drawn) [TCMDC-134446]	-13.17%	1160 nM	990 nM	7.42 µM				
COc1cccc(-c2csc(C(=O)NCC3CCN(Cc4ccc(C(C)(C)C)cc4)C3)c2)c1.O=C(O)C(F)(F)F (stereo not drawn) [TCMDC-134447]	-7.16%	1180 nM	650 nM	5.78 µM				
CCc1ccccc1-c1csc(C(=O)NCC2CCN(Cc3ccc(C(C)(C)C)cc3)C2)c1.O=C(O)C(F)(F)F (stereo not drawn) [TCMDC-134448]	-14.62%	1150 nM	1200 nM	7.67 µM				
CN(C)c1ccc(-c2csc(C(=O)NCC3CCN(Cc4ccc(C(C)(C)C)cc4)C3)c2)cc1.O=C(O)C(F)(F)F (stereo not drawn) [TCMDC-134449]	-20.17%	990 nM	600 nM	7.24 µM				
NCCCCNc1cc(-c2ccnc(Nc3cccc(Cl)c3)n2)ccn1 [TCMDC-134683]	-0.61%	280 nM	1460 nM	0.67 µM				
COc1cccc(OC)c1CN1CCC(N(C)CCCCCCCCN2CCC(OC(=O)Nc3ccccc3-c3ccccc3)CC2)CC1 [TCMDC-134684]	22.14%	460 nM	2260 nM	1.93 µM				
COc1cccc(OC)c1CN1CCC(N(C)CCCCCCCCCN2CCC(OC(=O)Nc3ccccc3-c3ccccc3)CC2)CC1 [TCMDC-134690]	15.06%	320 nM	1310 nM	1.91 µM				
Cc1cccc(Nc2nc(N[C@@H]3CCCNC3)nc3cc[nH]c(=O)c23)c1.O=C(O)C(F)(F)F [TCMDC-134835]	-27.53%	680 nM	1850 nM	3.25 µM				
NCCCNc1nc(Nc2ccc(C(F)(F)F)cc2F)c2c(=O)[nH]ccc2n1.O=C(O)C(F)(F)F [TCMDC-135056]	-14.04%	1050 nM	1600 nM	9.30 µM				
Fc1ccc(OC2CN(c3nccc(NCc4ccccc4Cl)n3)C2)cc1 [TCMDC-135110]	44.31%	900 nM	5220 nM	83.45 µM				
COc1ccccc1CNc1ccnc(N2CC(Oc3ccc(F)cc3)C2)n1 [TCMDC-135118]	42.55%	850 nM	4070 nM	73.68 µM				

Compound	Gametocytes mean ATP inhibition at 2µM [1]	IC50 [2, 4]	IC50 [3, 5]	HepG2 cells mean TOX50 (HepG2 cells; HepG2 cells)	Gametocytes mean ATP inhibition at 2µM (%) [1]	IC50 [2, 6]	IC50 [3]	HepG2 cells mean TOX50 (HepG2 cells)
CCn1c(Sc2ccc([N+](=O)[O-])c(C#N)c2)nnc1-c1cccc(Cl)c1 [TCMDC-135234]	46.72%	870 nM	1340 nM	18.80 µM				
Cc1occc1C(=O)Nc1nc(-c2ccccn2)nc2ccsc12 [TCMDC-135244]	87.21%	900 nM	60 nM	>100 µM				
CCn1c(-c2nonc2N)nc2c(-c3cc4ccccc4s3)ncc(C(=O)N3CCC(N)C3)c21.O=C(O)C(F)(F)F (stereo not drawn) [TCMDC-135281]	66.75%	870 nM	450 nM	1.00 µM				
Cc1[nH]c(C)c(-c2ccc(CCc3ccc(F)cc3F)cc2)c(=O)c1Cl [TCMDC-135462]	51.34%	16 nM	13300 nM	>100 µM				
CNCCNc1nccc(N2CCc3ncnc(Nc4ccc(OCc5cccc(F)c5)c(Cl)c4)c3C2)n1 [TCMDC-135478]	-9.54%	200 nM	1670 nM	5.62 µM				
CC(C)N1CCN(C(CN2CCN(CCCOc3ccc(-c4ccccc4)cc3)CC2)c2ccc(F)cc2)CC1.Cl (stereo not drawn) [TCMDC-135497]	6.50%	680 nM	1420 nM	2.29 µM				
COc1ccc(-c2cnc3[nH]cc(-c4ccncc4)c3c2)cc1OC [TCMDC-135853]	76.41%	130 nM	2260 nM	11.79 µM				
COc1ccc2ccccc2c1CCCCN1CCN(CC(c2ccc(F)cc2)N2CCC2)CC1.O=C(O)C(F)(F)F (stereo not drawn) [TCMDC-135867]					-0.41%	760 nM	5860 nM	4.37 µM
COc1cc(/C=C(\C2=NC(=O)CS2)c2nc3cccnc3n2C)ccc1O [TCMDC-135917]					48.81%	1000 nM	720 nM	21.14 µM
CCn1c(-c2nonc2N)nc2c(-c3cccc(NC(=O)Nc4ccc(C(F)(F)F)cc4)c3)ncc(OCCCN)c21.O=C(O)C(F)(F)F [TCMDC-136179]					-5.44%	1050 nM	910 nM	5.62 µM
CCn1c(-c2nonc2N)nc2c(-c3cccc(NC(=O)Nc4cccc(Cl)c4)c3)ncc(OCCCN)c21.O=C(O)C(F)(F)F [TCMDC-136193]					-8.58%	940 nM	1180 nM	80.36 µM
Cl.c1ccc2c(C3CCN(CCCCOc4ccc5c(c4)CCN(CC4CC4)CC5)CC3)c[nH]c2c1 [TCMDC-136244]					-6.50%	980 nM	1150 nM	5.15 µM
COc1ccc(Nc2nccc(-c3ccc4ccnc(NCCCCN)c4c3)n2)cc1 [TCMDC-136642]					21.11%	750 nM	1510 nM	14.29 µM
Cc1cc(OCCN2CCCCC2)ccc1NC(=O)c1cccc2c(=O)n(Cc3ccc(Cl)cc3)cnc12 [TCMDC-136727]					13.25%	1050 nM	1400 nM	4.17 µM
CC(C)NCc1ccc(OCc2cccc(COc3ccc(CNC(C)C)cc3I)c2)c(I)c1.Cl [TCMDC-137259]					81.19%	90 nM	1320 nM	1.64 µM
CCCCOc1ccc(CNCCCCCCNCc2ccc(OCCCC)c3ccccc23)c2ccccc12.CS(=O)(=O)O [TCMDC-137281]					94.34%	1130 nM	400 nM	2.29 µM
CS(=O)(=O)O.FC(F)(F)COc1ccc(CCNCCCCNCCc2ccc(OCC(F)(F)F)c3ccccc23)c2ccccc12 [TCMDC-137282]					91.27%	650 nM	200 nM	1.66 µM
CS(=O)(=O)O.FC(F)(F)COc1ccc2ccccc2c1CCNCCCCNCCc1c(OCC(F)(F)F)ccc2ccccc12 [TCMDC-137317]					88.24%	430 nM	1010 nM	2.09 µM
